Measurements: patent publication US20040106584A1, “Prophylactic docosahexaenoic acid therapy for patients with subclinical inflammation” (priority 2002, published 2004)

Key:
[1] = cited from earlier work
[2] = test system: ADP-induced platelet aggregation; conditions: oral loading dose of 300-600 mg; cited from earlier work
[3] = in vivo; cited from earlier work
obese diabetic mice = conditions: 100 mg/kg body weight, but not normal or lean diabetic mice; cited from earlier work
C-reactive protein (CRP) = assay: Clinical study of DHASCO capsules co-administered with statin in dyslipidemia patients: CRP levels; type: in vivo, human; conditions: 20 patients treated with DHA, 200 or 1000 mg daily
Experimental: In a clinical study DHASCO capsules (which contained DHA as a triglyceride oil extracted from Crypthecodinium cohnii cells, obtained from Martek Biosciences Corp., Columbia, Md.) were co-administered with statin medication to patients with dyslipidemia. Hyperlipidemic patients already being treated with a stable dose of a statin medication but still failing to meet NCEP guidelines for LDL-cholesterol or triglycerides were treated with either 200 or 1000 mg of DHA daily for 12 months. HbAlc levels (glycosylated hemoglobin, a marker of glycemic control) were measured in plasma at baseline and after 8 or 12 months of treatment.
Reduction in CRP of this extent is clinically significant, and may be correlated with a benefit of reduced risk of Type II diabetes onset, independent of other Type II risk factors.

[4] = target: T1, platelet glycoprotein IIb/IIa receptors (Homo sapiens, UniProt P05106+P08514); conditions: cited from earlier work
T1 construct: host or cells: platelets in vivo (endogenous receptor)

Compound: CC(=O)Oc1ccccc1C(=O)O [Aspirin, acetylsalicylic acid]
- reduction of the risk of serious vascular events ([1]; patients at high risk of such an event): about a quarter

Compound: COC(=O)[C@H](c1ccccc1Cl)N1CCc2sccc2C1 [Clopidogrel]
- time to detectable inhibition of ADP-induced platelet aggregation [2]: 2 h
- time to maximal inhibition of ADP-induced platelet aggregation [2]: 6 h
- reduction of the risk of serious vascular events compared with aspirin ([1]; high-risk patients): about 10%
- risk of skin rash and diarrhea compared with aspirin [3]: about a third

Compound: CC/C=C\C/C=C\C/C=C\C/C=C\C/C=C\C/C=C\CCC(=O)OCC [DHA ethyl ester]
- blood glucose (obese diabetic mice): reduced
- insulin sensitivity (obese diabetic mice): enhanced
- plasma triglycerides (obese diabetic mice): reduced

Compound: CC/C=C\C/C=C\C/C=C\C/C=C\C/C=C\C/C=C\CCC(=O)O [DHA, docosahexaenoic acid]
- overall reduction in CRP level (C-reactive protein (CRP)): 15%

Compound: Clc1ccccc1CN1CCc2sccc2C1 [Ticlopidine]
- risk of skin rash and diarrhea compared with aspirin [3]: doubles

Compound: abciximab: humanized mouse antibody fragment with a high binding affinity for the glycoprotein IIb/IIa receptor
- persistent blockade of platelet glycoprotein IIb/IIa receptors ([4]; 24 hours after cessation of an infusion): more than 50%
- time to recovery of platelet function ([4]; after cessation of an infusion): 2 days
